Test results: paper PMC11267536, “Gonococcal Mimitope Vaccine Candidate Forms a Beta-Hairpin Turn and Binds Hydrophobically to a Therapeutic Monoclonal Antibody” (JACS Au, 2024)
Several values for one entry are separate records, joined by “and”; a condition that tells them apart may be missing. Equal entries are not always repeated. Bridges are numbered along the chain shown (N, C = ends).

Tests used:
gonococcal colonization = conditions: cited from earlier work
Source text: The spread of multidrug-resistant strains of Neisseria gonorrhoeae, the etiologic agent of gonorrhea, represents a global health emergency. Therefore, the development of a safe and effective vaccine against gonorrhea is urgently needed. […] Furthermore, we identified a peptide, cyclic peptide 2 (CP2) that mimicked the 2C7 LOS epitope, elic ... || Neisseria gonorrhoeae is a leading cause of sexually transmitted infections, which include urethritis, cervicitis, pharyngitis, locally invasive (epididymitis and salpingo-oophritis) and disseminated infections, and in rare cases, meningitis and endocarditis.[1] Infections in women are frequently asymptomatic, which augments the spread of bacteria among populations. Further, strains have emerged that are resistant to multiple antibiotics, which have the potential to lead to untreatable infections. Thus, the development of vaccines and novel therapeutics, including nonantibiotic approaches, is ... || Gonococcal lipooligosaccharide (LOS) is the most abundant component of the outer membrane. Antibodies against LOS can elicit complement-dependent bacterial killing, and therefore, LOS has been pursued as a vaccine candidate (reviewed in ref ([12])). A murine anti-LOS monoclonal antibody (mAb) 2C7 was isolated almost four decades ago.[13],[14] […]

mAb 2C7 [1] = assay: WaterLOGSY, CPMG and 1D NH chemical shift perturbation NMR; assay type: binding, Human-mouse chimeric
Protocol: (§1) NMR spectra were recorded on a Bruker AVANCE NEO 600-MHz equipped with a cryo probe, and data acquisition and processing were performed with TOPSPIN 4.1.1 software. Samples were prepared in H2O:D2O (90:10) buffered with 50 mM phosphate at pH 7.4, using 3 mm NMR tubes. NMR spectra were acquired using antibody concentrations of 10–20 μM, a peptide concentration of 1 mM, and an antibody:peptide ratio from 1:18 to 1:50, depending on the NMR experiments, and temperatures of 288 and 298 K; 0.05 mM amount of deuterated trimethylsilylpropanoic acid (TSP) was used as an internal standard.
The waterLOGSY experiments were performed on CP2 in the absence and presence of the mAb, using a conventional 1D NOE-ePHOGSY pulse sequence[36] provided in the Bruker library (ephogsygpno.2). The bulk water was selectively irradiated by 1D NOESY, and the solvent suppression was modified into a double pulsed-field gradient (DPFG) perfect-echo.[37] A mixing time of 2s was used in order to compare the WaterLOGSY experiment with the STD NMR experiment.
A mixture of 20 μM mAb2C7 and 1 mM CP2 peptide was prepared in deuterated phosphate saline buffer pH 7.4. Pseudo 2D experiments (cpmg_esgp2d) were used for detecting T2 spin–spin relaxation measurements. Data were analyzed by fitting the equation f(t) = Io × exp (−t/T) using Dynamics Center 2.7.1.

gonococci = conditions: ref previous studies, cited from earlier work
Source text: The spread of multidrug-resistant strains of Neisseria gonorrhoeae, the etiologic agent of gonorrhea, represents a global health emergency. Therefore, the development of a safe and effective vaccine against gonorrhea is urgently needed. […] Furthermore, we identified a peptide, cyclic peptide 2 (CP2) that mimicked the 2C7 LOS epitope, elic ... || Neisseria gonorrhoeae is a leading cause of sexually transmitted infections, which include urethritis, cervicitis, pharyngitis, locally invasive (epididymitis and salpingo-oophritis) and disseminated infections, and in rare cases, meningitis and endocarditis.[1] Infections in women are frequently asymptomatic, which augments the spread of bacteria among populations. Further, strains have emerged that are resistant to multiple antibiotics, which have the potential to lead to untreatable infections. […] Therefore, a random peptide display library was used to identify a peptide, designated as PEP1, which bound mAb 2C7. […] Subsequently, PEP1 was covalently cyclized to yield CP2 and configured as a tetramer (designated tetra-MAP CP2 or TMCP2). TMCP2 adjuvanted wit ...

mAb 2C7 [2] = assay: STD NMR titration of CP2 into mAb 2C7; assay type: binding, Human-mouse chimeric; conditions: STD-AF of methyl signals, one-site Langmuir model, saturation time 2 s, CP2 0.17-1.70 mM, 50 mM phosphate pH 7.4, H2O:D2O 90:10, 288 and 298 K, read-out: apparent equilibrium dissociation constant (KD)
Protocol: Chimeric mAb 2C7 and the sequence for the VH and VL regions of murine mAb 2C7 have been described previously.[18] Human-mouse chimeric mAb 2C7 was expressed in ExpiCHO cells and purified by affinity chromatography of tissue culture supernatants using Protein A/G agarose. Chimeric Fab 2C7 was expressed in CHO cells and purified by affinity chromatography with an anti-CH1 antibody (LakePharma).
as §1
STD NMR experiments were acquired with 32,000 data points and zero-filled up to 64,000 data points prior to processing. The protein resonances were selectively irradiated using 40 Gauss pulses with a length of 50 ms, setting the off-resonance pulse frequency at 40 ppm and the on-resonance pulse at 5.5 ppm. An excitation sculpting with gradient pulses (esgp) was applied for the suppression of water signals. […]

mAb 2C7 [3] = assay: Isothermal titration calorimetry (ITC); assay type: binding, Human-mouse chimeric; conditions: 20 °C
Protocol: Isothermal titration calorimetry (ITC) experiments were carried out at 20 °C by using a MicroCal PEAQ-ITC instrument. mAb and peptide CP2 were both dialyzed against PBS pH 7.4 to avoid buffer mismatch between solutions. A solution of mAb with a concentration of 30 μM was loaded into the cell, and for each measurement, CP2 was added to the antibody solution through a microsyringe under a stirrer speed of 750 rpm. The titration was performed by adding 2 μL from a 1.67 mM CP2 solution for 19 injections using a time duration of 150 s. The data were analyzed and fitted by using the one-binding site model. The standard thermodynamic parameters of equilibrium were calculated by the following equation[45]: [drawing 2] 2 where ΔG is the Gibb’s free energy, Ka is the equilibrium constant, R is the gas constant, T is the temperature in kelvin, ΔH is the enthalpy change, and ΔS is the entropy change.

[4] = target: human-mouse chimeric mAb 2C7 (mouse | human | mouse VL, human constant region); assay: ITC; 20 °C, PBS pH 7.4; 30 uM mAb in the cell, 1.67 mM CP2 in the syringe, 19 injections of 2 uL; one-site model
[5] = target: human-mouse chimeric mAb 2C7 (mouse | human | mouse VL, human constant region); assay: NMR titration; STD NMR; CP2 (0.17 to 1.70 mM) titrated into a solution of mAb; 50 mM phosphate pH 7.4, H2O:D2O 90:10; saturation time 2 s; one-site Langmuir isotherm; apparent
gonococcal strains = conditions: cited from earlier work
Source text: Gonococcal lipooligosaccharide (LOS) is the most abundant component of the outer membrane. Antibodies against LOS can elicit complement-dependent bacterial killing, and therefore, LOS has been pursued as a vaccine candidate (reviewed in ref ([12])). A murine anti-LOS monoclonal antibody (mAb) 2C7 was isolated almost four decades ago.[13],[14] 2C7 recognizes an LOS epitope that comprises lactose from heptose (Hep) II; lactose from HepI or GlcNAc may also contribute to the 2C7 epitope (see Supporting Information, Scheme S1). This mAb reacted with 94% of 68 gonococcal strains examined in the cerv ...

Molecule: Br-Ac-Gly-Pro-Ile-Pro-Val-Leu-Asp-Glu-Asn-Gly-Leu-Phe-Ala-Pro-Gly-Pro-Cys-Lys-OH (sidechain bridge or staple) [CP2]
- active protection (gonococcal colonization; mouse vaginal colonization model, ref previous studies): actively protected in a mouse vaginal colonization model
- transverse relaxation time T2 (CPMG) (mAb 2C7 [1]; 20 μM mAb 2C7, 1 mM CP2, deuterated phosphate saline buffer pH 7.4): indicative of complex formation
- WaterLOGSY binding (mAb 2C7 [1]; change in peak phase from free to bound state, mixing time 2 s): the change in the peak phase passing from the free to the bound state is indicative of binding
- 1D NH chemical shift perturbation (mAb 2C7 [1]; mixture of mAb 2C7 with CP2): a few chemical shift perturbations
- bactericidal antibodies (gonococci; mice): elicited bactericidal antibodies in mice
- Kd (mAb 2C7 [2]): 61 µM
- ΔG (mAb 2C7 [3]; PBS pH 7.4): -6.24 kcal/mol
- ΔG (exothermic process) (mAb 2C7 [3]; PBS pH 7.4): < 0
- ΔH (mAb 2C7 [3]; PBS pH 7.4): -1.71 ± 0.0707 kcal/mol and -1.71 kcal/mol
- −TΔS (mAb 2C7 [3]; PBS pH 7.4): -4.52 kcal/mol
- binding stoichiometry N (sites) (mAb 2C7 [3]; one-site binding model, PBS pH 7.4): 1.89 ±4.4e-2 and 1.89
- Kd (mAb 2C7 [3]; one-site binding model, PBS pH 7.4, mAb 30 μM, 1.67 mM CP2, 19 injections of 2 μL): 23 µM

Molecule: GPIPVLDENGLFAPGPCK-OH (bridge N-17; not fully specified (N-terminus, bridges)) [cyclic peptide 2 (CP2)]
- Kd [4]: 23 µM
- dH [4]: -1.71 kcal/mol
- stoichiometry N [4]: 1.89 CP2 per mAb
- Kd [5]: 61 µM

B1: Murine mAb 2C7: murine anti-LOS monoclonal antibody 2C7 (antibody, V domains shown)
VH: EVQLQQSGPELVKPGSSVKISCKGSGYTFTDYNMEWVKQSHGKSLEWIGVINPNNRFTSYNQNFRGKATLTVDKSSSTAYMDLRSLTSEDSAVYFCAGSRWYQYDYWGQGTTLTVSS
VL: QVVVTQESALTTSPGETVTLTCRSSTGAVTTSNYANWVQEKPDHLFTGLIGGINNRAPGVPARFSGSLIADKAALTITGAQTEDEAIYFCALWYSNHWVFGGGTKLTVL
- duration and burden of gonococcal colonization (gonococcal colonization; mouse vaginal model): decreased the duration and burden of gonococcal colonization
- gonococcal strains recognized (gonococcal strains; 68 gonococcal strains examined in the cervical secretions of women): 94%
- clinical isolates recognized (gonococcal strains; 75 minimally passaged clinical isolates, Nanjing, China): 100%
- complement-dependent bactericidal activity (gonococci; against gonococci): elicits complement-dependent bactericidal activity against gonococci
